Measured values reported in publication PMC7249047, “Search for ABCB1 Modulators Among 2-Amine-5-Arylideneimidazolones as a New Perspective to Overcome Cancer Multidrug Resistance” (Molecules, 2020).
Where “and” joins values, the source holds several entries; their conditions need not be identical. Equal entries are not always repeated.

Experiments:
[1] = Cytotoxicity MTT assay, 24 h, PAR cells; assay type: cell-based; conditions: mouse, parental (PAR) L5178 mouse T-cell lymphoma cells, read-out: Cytotoxic effect IC50
Description: (§1) The cytotoxicity of compounds 7–20 was examined in both aforementioned PAR and MDR mouse T-lymphoma cell lines, using the MTT assay to estimate IC50 values. The selectivity index for cytotoxic action on MDR with respect to PAR cells was calculated (SI, Table 3). […] This range of SI may indicate ABCB1-efflux pump substrate properties for the whole series (7–20), especially distinct in the case of 19 (SI ≤ 0.29), and slightly weaker for 8, 12, 16, and 18.
(§2) L5178 mouse T-cell lymphoma cells (PAR) (ECACC Cat. No. 87111908, obtained from FDA, Silver Spring, MD, USA) were transfected with pHa MDR1/A retrovirus, as previously described by Cornwell et al.. The ABCB1-expressing cell line L5178Y (MDR) was selected by culturing the infected cells with colchicine. The parental L5178 mouse T-cell lymphoma cells and the L5178Y human ABCB1-transfected subline were cultured in McCoy’s 5A medium (Sigma-Aldrich, St Louis, MO, USA) supplemented with 10% heat-inactivated horse serum (Sigma-Aldrich, St Louis, MO, USA), 200 mM L-glutamine (Sigma-Aldrich, St Louis, MO, USA), and a penicillin-streptomycin (Sigma-Aldrich, St Louis, MO, USA) mixture in concentrations of 100 U/L and 10 mg/L, respectively. The cell lines were incubated at 37 °C, in a 5% CO2, 95% air atmosphere.
(§3) Cytotoxicity and antiproliferative assays were performed following the procedure described in the literature. Parental and multidrug-resistant mouse T-lymphoma cells were used to determine the effect of the arylideneimidazolones on the growth of cells. The effects of increasing concentrations of arylideneimidazolones on cell growth were tested in 96-well flat-bottomed microtiter plates. The compounds were diluted in a volume of 100 μL of medium.
(§4) In the case of the mouse T-lymphoma cells, the two-fold serial dilutions were prepared in 100 μL of McCoy’s 5A, horizontally. The parental (PAR) and multidrug-resistant (MDR) mouse T-lymphoma cells were adjusted to a density of 1 × 10^4 cells (for cytotoxic assay) and 6 × 10^3 (for antiproliferative assay) in 100 μL of McCoy’s 5A medium and were added to each well, with the exception of the medium control wells.
(§5) The culture plates were incubated at 37 °C for 24 h (for cytotoxicity assay) and 72 h (for antiproliferative assay); at the end of the incubation period, 20 μL of MTT (thiazolyl blue tetrazolium bromide, Sigma) solution (from a stock solution of 5 mg/mL) were added to each well. After incubation at 37 °C for 4 h, 100 μL of sodium dodecyl sulfate (SDS) (Sigma) solution (10% in 0.01 M HCI) were added to each well and the plates were further incubated at 37 °C overnight. Cell growth was determined by measuring the optical density (OD) at 540/630 nm with a Multiscan EX ELISA reader (Thermo Labsystems, Cheshire, WA, USA).
(§6) Results have been expressed in terms of IC50, defined as the inhibitory dose that reduces the growth of the cells exposed to the tested compounds by 50%, each representing the mean of a minimum of three independent experiments.

[2] = Cytotoxicity MTT assay, 24 h, MDR cells; assay type: cell-based; conditions: mouse; for IC50 at 24 h: MDR cells, MTT, read-out: Cytotoxic effect IC50; for selectivity ratio at 24 h: cytotoxic action on MDR with respect to PAR cells, read-out: SI (selectivity index), cytotoxicity
Description: as §1, §2, §3, §4, §5, §6

[3] = system: parental (PAR) mouse T-lymphoma cells; assay: Antiproliferative MTT assay, 72 h, PAR cells; assay type: cell-based; conditions: read-out: Antiproliferative effect IC50
Description: (§7) The ABCB1-expressing cell line L5178Y (MDR) was selected by culturing the infected cells with colchicine. The parental L5178 mouse T-cell lymphoma cells and the L5178Y human ABCB1-transfected subline were cultured in McCoy’s 5A medium (Sigma-Aldrich, St Louis, MO, USA) supplemented with 10% heat-inactivated horse serum (Sigma-Aldrich, St Louis, MO, USA), 200 mM L-glutamine (Sigma-Aldrich, St Louis, MO, USA), and a penicillin-streptomycin (Sigma-Aldrich, St Louis, MO, USA) mixture in concentrations of 100 U/L and 10 mg/L, respectively.
as §3, §4
(§8) Cell growth was determined by measuring the optical density (OD) at 540/630 nm with a Multiscan EX ELISA reader (Thermo Labsystems, Cheshire, WA, USA).

[4] = system: multidrug-resistant (MDR) mouse T-lymphoma cells; assay: Antiproliferative MTT assay, 72 h, MDR cells; assay type: cell-based; conditions: for SI (selectivity index), antiproliferative: MDR with respect to PAR cells; for IC50: Mus musculus, MDR cells, 72 h, MTT, read-out: Antiproliferative effect IC50
Description: as §7, §3, §4, §8

Pgp (ABCB1) ATPase = molecular target: T1, Pgp (ABCB1) ATPase (Homo sapiens, UniProt P08183); assay: Luminescent Pgp-Glo Assay (Pgp ATPase intrinsic activity); assay type: biochemical; conditions: 100 µM, 40 min, 37 °C; substrates stimulate basal activity (>100%)
T1 construct: purchased Promega (Madison, WI, USA)
Description: Compounds 11, 12, and 18 were tested at 100 µM on their influence on the ATPase activity of the Pgp pump in the luminescence Pgp-Glo™ Assay, according to previously described methods and protocols. In this assay, luminescence was measured. The Pgp-dependent decreases in luminescence reflect the ATP consumption by Pgp. […] Thus, inhibitors give results <100% of the basal activity, while stimulators/substrates cause a statistically significant increase in the basal activity. […].
The luminescent Pgp-Glo™ Assay System used for determination of the arylideneimidazolone influence on P-glycoprotein activity was purchased from Promega (Madison, WI, USA). The assay was performed in triplicate as described previously. […]. For basal P-gp activity calculation, the membranes were incubated with 100 µM of Na3VO4. The luminescence signal was measured by a microplate reader EnSpire PerkinElmer (Waltham, MA, USA). The statistical significances were calculated using GraphPad Prism 8.0.1 software.

[5] = Safety in vitro, MTS assay in HEK-293 cells; assay type: cell-based, human; conditions: human, HEK-293 cells, 50 µM, read-out: HEK-293 cell viability
Description: (§9) For safety assay, cells were seeded in 96-well plates at a concentration of 1 × 10^4 cells/well and incubated for 24 h at 37 °C in 5% CO2 atmosphere to reach 50% of confluence. Compounds 11, 12, and 18 were diluted into fresh growth medium and added to the cells at the final concentrations of 0.1–100 μM. The positive control DOX (1 μM) was also added and the cells were incubated for 72 h. The MTS (3-(4,5-dimethylthiazol-2-yl)-5-(3-carboxymethoxyphenyl)-2-(4-sulfophenyl)-2H-tetrazolium) reagent (CellTiter 96® AQueous One Solution Cell Proliferation Assay, Promega, Madison, WI, USA) was added next to each well and incubated for 4 h. The absorbance was measured using a microplate reader (EnSpire, PerkinElmer, Waltham, MA USA) at 490 nm to determine the cells’ viability. The statistical significances were calculated using GraphPad Prism 8.0.1 software.

HEK-293 cells = assay: Safety in vitro, MTS assay in HEK-293 cells; assay type: cell-based, human; conditions: highest used concentrations (50 and 100 µM), 72 h
Description: as §9

ABCB1 efflux pump = ABCB1 efflux pump (Homo sapiens, UniProt P08183); assay: Rhodamine 123 accumulation assay (flow cytometry); conditions: for efflux pump inhibiting effect relative to verapamil: 20 µM, same concentration as verapamil; for FAR Quotient (%): FAR of compound related to FAR of VER tested at 20 µM; for FAR (fluorescence activity ratio): rhodamine 123 accumulation, MDR vs PAR mouse T-lymphoma cells
Description: The study was carried out on mouse T-lymphoma cell lines, including the parental sensitive line (PAR) and its multidrug-resistant subline (MDR) transfected with the human MDR1 (ABCB1) gene. […] The fluorescence activity ratio (FAR), as a measure of the efflux pump modulating properties, was calculated based on the fluorescence data obtained [23, 24, 25]. […] The parental L5178 mouse T-cell lymphoma cells and the L5178Y human ABCB1-transfected subline were cultured in McCoy’s 5A medium (Sigma-Aldrich, St Louis, MO, USA) supplemented with 10% heat-inactivated horse serum (Sigma-Aldrich, St Louis, MO, USA), 200 mM L-glutamine (Sigma-Aldrich, St Louis, MO, USA), and a penicillin-streptomycin (Sigma-Aldrich, St Louis, MO, USA) mixture in concentrations of 100 U/L and 10 mg/L, respectively.
The potency of the tested compounds as inhibitors of the ABCB1 efflux pump was determined using a fluorescence-based detection system, described previously in the literature [23, 26]. […] The parental (PAR) and multidrug-resistant (MDR) mouse T-lymphoma cells were adjusted to a density of 2 × 10^6/mL, re-suspended in serum-free McCoy’s 5A medium, and distributed in 0.5 mL aliquots into Eppendorf centrifuge tubes. […] The fluorescence intensity of the cell population was measured with a Partec CyFlow flow cytometer (Partec, Munster, Germany). […] The mean fluorescence intensity (%) was calculated for the treated MDR and PAR mouse T-lymphoma cells as compared to the untreated cells.

[6] = concentration 20 µM, VER values for assay group 1 / 2

T1 sequence (P08183 whole entry): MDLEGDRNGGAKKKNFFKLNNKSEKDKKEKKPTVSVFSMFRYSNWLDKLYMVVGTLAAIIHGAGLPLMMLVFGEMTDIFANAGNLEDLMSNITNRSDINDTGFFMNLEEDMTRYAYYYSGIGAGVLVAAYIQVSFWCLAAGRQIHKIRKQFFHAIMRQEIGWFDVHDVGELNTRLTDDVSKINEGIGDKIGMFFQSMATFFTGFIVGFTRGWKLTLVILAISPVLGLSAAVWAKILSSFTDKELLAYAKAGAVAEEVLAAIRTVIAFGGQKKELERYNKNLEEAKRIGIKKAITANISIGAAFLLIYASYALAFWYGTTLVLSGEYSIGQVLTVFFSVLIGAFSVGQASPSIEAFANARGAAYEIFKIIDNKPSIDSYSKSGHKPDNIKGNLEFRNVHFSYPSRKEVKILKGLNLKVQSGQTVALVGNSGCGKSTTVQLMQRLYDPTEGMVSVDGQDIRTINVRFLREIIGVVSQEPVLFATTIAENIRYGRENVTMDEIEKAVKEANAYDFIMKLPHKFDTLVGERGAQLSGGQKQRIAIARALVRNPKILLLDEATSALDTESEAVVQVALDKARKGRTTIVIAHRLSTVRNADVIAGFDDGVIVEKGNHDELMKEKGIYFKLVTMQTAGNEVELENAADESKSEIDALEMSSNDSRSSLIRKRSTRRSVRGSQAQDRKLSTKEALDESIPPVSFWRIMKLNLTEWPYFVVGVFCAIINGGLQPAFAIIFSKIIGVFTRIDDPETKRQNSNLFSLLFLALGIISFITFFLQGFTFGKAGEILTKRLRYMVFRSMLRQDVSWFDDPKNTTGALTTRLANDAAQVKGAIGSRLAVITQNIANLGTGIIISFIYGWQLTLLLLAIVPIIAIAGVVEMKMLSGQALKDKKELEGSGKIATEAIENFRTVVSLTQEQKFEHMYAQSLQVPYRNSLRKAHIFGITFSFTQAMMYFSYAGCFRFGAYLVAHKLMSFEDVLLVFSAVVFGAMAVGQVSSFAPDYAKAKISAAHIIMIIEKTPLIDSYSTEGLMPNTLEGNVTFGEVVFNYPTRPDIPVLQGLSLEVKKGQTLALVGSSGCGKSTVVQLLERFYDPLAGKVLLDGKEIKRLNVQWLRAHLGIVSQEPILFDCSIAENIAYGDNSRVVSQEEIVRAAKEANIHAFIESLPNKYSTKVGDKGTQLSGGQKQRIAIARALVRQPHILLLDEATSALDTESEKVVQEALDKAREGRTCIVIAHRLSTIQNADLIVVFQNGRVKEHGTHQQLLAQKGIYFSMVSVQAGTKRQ
ABCB1 efflux pump, sequence (P08183 whole entry): as above

## Cl.O=C1N=C(N2CCC(N3CCOCC3)CC2)N/C1=C\c1ccc(Oc2ccccc2)cc1 [Compound 11, (Z)-5-(4-Phenoxybenzylidene)-2-(4-morpholinopiperidin-1-yl)-imidazol-4(5H)-one hydrochloride]
[1]
  IC50 at 24 h: 39.1 µM
[2]
  IC50 at 24 h: 45.5 µM
  selectivity ratio at 24 h: 0.86
[3]
  IC50: 24.8 µM
[4]
  SI (selectivity index), antiproliferative: 0.97
  IC50: 25.6 µM
Pgp (ABCB1) ATPase
  effect on ABCB1 basal activity (Pgp ATPase): increase in basal activity
[5]
  viability at 72 h, 50 µM: 84.2%
HEK-293 cells
  effect on HEK-293 cell viability: significantly decreased HEK-293 cell viability
ABCB1 efflux pump
  efflux pump inhibiting effect relative to verapamil: ~1.5 fold and 1.38–1.46 fold
ABCB1 efflux pump; concentration 2 µM
  FAR Quotient (%): 7.51%
  FAR (fluorescence activity ratio): 1.203
ABCB1 efflux pump; concentration 20 µM
  FAR Quotient (%): 146.22%
ABCB1 efflux pump; [6]
  FAR (fluorescence activity ratio): 23.419

## Cl.O=C1N=C(N2CCC(N3CCOCC3)CC2)N/C1=C\c1ccc2c(c1)Cc1ccccc1-2 [Compound 12, (Z)-5-((9H-Fluoren-2-yl)methylene)-2-(4-morpholinopiperidin-1-yl)-imidazol-4(5H)-one hydrochloride]
[1]
  IC50 at 24 h: 15.8 µM
[2]
  IC50 at 24 h: 30.8 µM
  selectivity ratio at 24 h: 0.51
[3]
  IC50: 12.7 µM
[4]
  SI (selectivity index), antiproliferative: 0.78
  IC50: 16.2 µM
Pgp (ABCB1) ATPase
  effect on ABCB1 basal activity (Pgp ATPase): increased the basal activity
other
  melting point: 274 to 276 °C
ABCB1 efflux pump; concentration 2 µM
  FAR Quotient (%): 8.88%
  FAR (fluorescence activity ratio): 1.161
ABCB1 efflux pump; concentration 20 µM
  FAR Quotient (%): 46.23%
ABCB1 efflux pump; [6]
  FAR (fluorescence activity ratio): 6.045

## Cl.NC1=N/C(=C\c2ccc3c(c2)Cc2ccccc2-3)C(=O)N1CCCN1CCOCC1 [Compound 18, (Z)-5-((9H-Fluoren-2-yl)methylene)-2-amino-3-(3-morpholinopropyl)-imidazol-4(5H)-one hydrochloride]
[1]
  IC50 at 24 h: 16 µM
[2]
  IC50 at 24 h: 27.8 µM
  selectivity ratio at 24 h: 0.58
[3]
  IC50: 13.4 µM
[4]
  SI (selectivity index), antiproliferative: 1.24
  IC50: 10.8 µM
Pgp (ABCB1) ATPase
  effect on ABCB1 basal activity (Pgp ATPase): increase in basal activity
[5]
  viability at 72 h, 50 µM: 10.3%
HEK-293 cells
  effect on HEK-293 cell viability: significantly decreased HEK-293 cell viability
other
  melting point: 261 to 263 °C
ABCB1 efflux pump
  efflux pump inhibiting effect relative to verapamil: ~1.5 fold and 1.38–1.46 fold
ABCB1 efflux pump; concentration 2 µM
  FAR Quotient (%): 7.94%
  FAR (fluorescence activity ratio): 1.038
ABCB1 efflux pump; concentration 20 µM
  FAR Quotient (%): 138.37%
ABCB1 efflux pump; [6]
  FAR (fluorescence activity ratio): 18.095
